Where two headings read alike, the source gives them in different places. Marks after values point to notes of the source that are not given here.
Experiment: Plasma levels of isoxicam and bioavailability parameters after a single oral dose to beagle dogs
Format: in vivo
Settings: for Plasma levels of isoxicam / Plasma levels of isoxicam, Mean: 100 mg/dog oral (isoxicam equivalents); for AUC(0-inf) / half-life / Cmax / Tmax: dog, in vivo, po, 100 mg; for Tmax: read-out: Tmax; for Plasma levels of isoxicam, Mean: mean of dogs
Protocol: The range for the individual animals was 51.4 to 63.0 µg/ml with three animals having a peak time of two hours and the final animal at eight hours. These plasma levels were considerably higher when compared to micronized isoxicam. […] Peak plasma concentrations for individual animals ranged from […] between three and six hours postdose.
Areas under the plasma concentrations versus time curve (AUC^0-∞) were calculated using the trapezoidal rule and extrapolated to infinity with the appropriate elimination rate constants.

[1] = Mean of four dogs, oral 100 mg (free acid equivalents)
[2] = dog 1930, oral 100 mg (free acid equivalents)
[3] = dog 1942, oral 100 mg (free acid equivalents)
[4] = dog 117668, oral 100 mg (free acid equivalents)
[5] = dog 120064, oral 100 mg (free acid equivalents)

SMILES: Cc1cc(NC(=O)C2=C(O)c3ccccc3S(=O)(=O)N2C)no1 [arginine isoxicamate, L-arginine isoxicamate]
- Plasma levels of isoxicam (dog 1930, time 0.5 h postdose): 29.6 µg/mL
- Plasma levels of isoxicam (dog 1930, time 1.0 h postdose): 43.4 µg/mL
- Plasma levels of isoxicam (dog 1930, time 2.0 h postdose): 51.4 µg/mL
- Plasma levels of isoxicam (dog 1930, time 3.0 h postdose): 47.5 µg/mL
- Plasma levels of isoxicam (dog 1930, time 4.0 h postdose): 48.9 µg/mL
- Plasma levels of isoxicam (dog 1930, time 6.0 h postdose): 48.3 µg/mL
- Plasma levels of isoxicam (dog 1930, time 8.0 h postdose): 42.6 µg/mL
- Plasma levels of isoxicam (dog 1930, time 12.0 h postdose): 37.8 µg/mL
- Plasma levels of isoxicam (dog 1930, time 24.0 h postdose): 32.8 µg/mL
- Plasma levels of isoxicam (dog 1930, time 32.0 h postdose): 25.2 µg/mL
- Plasma levels of isoxicam (dog 1930, time 48.0 h postdose): 25.0 µg/mL
- Plasma levels of isoxicam (dog 1930, time 72.0 h postdose): 14.6 µg/mL
- Plasma levels of isoxicam (dog 1930, time 96.0 h postdose): 10.2 µg/mL
- Plasma levels of isoxicam (dog 1930, time 192.0 h postdose): 1.56 µg/mL
- Plasma levels of isoxicam (dog 1930, time 240.0 h postdose): 0.89 µg/mL
- Plasma levels of isoxicam (dog 1942, time 0.5 h postdose): 7.99 µg/mL
- Plasma levels of isoxicam (dog 1942, time 1.0 h postdose): 28.1 µg/mL
- Plasma levels of isoxicam (dog 1942, time 2.0 h postdose): 58.6 µg/mL
- Plasma levels of isoxicam (dog 1942, time 3.0 h postdose): 51.7 µg/mL
- Plasma levels of isoxicam (dog 1942, time 4.0 h postdose): 53.9 µg/mL
- Plasma levels of isoxicam (dog 1942, time 6.0 h postdose): 50.5 µg/mL
- Plasma levels of isoxicam (dog 1942, time 8.0 h postdose): 42.2 µg/mL
- Plasma levels of isoxicam (dog 1942, time 12.0 h postdose): 39.4 µg/mL
- Plasma levels of isoxicam (dog 1942, time 24.0 h postdose): 35.6 µg/mL
- Plasma levels of isoxicam (dog 1942, time 32.0 h postdose): 25.7 µg/mL
- Plasma levels of isoxicam (dog 1942, time 48.0 h postdose): 25.5 µg/mL
- Plasma levels of isoxicam (dog 1942, time 72.0 h postdose): 17.1 µg/mL
- Plasma levels of isoxicam (dog 1942, time 96.0 h postdose): 8.96 µg/mL
- Plasma levels of isoxicam (dog 1942, time 153.5 h postdose): 2.34 µg/mL
- Plasma levels of isoxicam (dog 1942, time 192.0 h postdose): 1.28 µg/mL
- Plasma levels of isoxicam (dog 1942, time 240.0 h postdose): 0.60 µg/mL
- Plasma levels of isoxicam (dog 117668, row 192.0, actual time=193 hours): 0.85* µg/ml
- Plasma levels of isoxicam (dog 117668, time 0.5 h postdose): 22.8 µg/mL
- Plasma levels of isoxicam (dog 117668, time 1.0 h postdose): 42.6 µg/mL
- Plasma levels of isoxicam (dog 117668, time 3.0 h postdose): 55.1 µg/mL
- Plasma levels of isoxicam (dog 117668, time 4.0 h postdose): 59.3 µg/mL
- Plasma levels of isoxicam (dog 117668, time 6.0 h postdose): 50.2 µg/mL
- Plasma levels of isoxicam (dog 117668, time 8.0 h postdose): 63.0 µg/mL
- Plasma levels of isoxicam (dog 117668, time 24.0 h postdose): 30.5 µg/mL
- Plasma levels of isoxicam (dog 117668, time 32.0 h postdose): 29.6 µg/mL
- Plasma levels of isoxicam (dog 117668, time 48.0 h postdose): 18.6 µg/mL
- Plasma levels of isoxicam (dog 117668, time 72.0 h postdose): 10.7 µg/mL
- Plasma levels of isoxicam (dog 117668, time 96.0 h postdose): 5.10 µg/mL
- Plasma levels of isoxicam (dog 117668, time 153.5 h postdose): 1.27 µg/mL
- Plasma levels of isoxicam (dog 117668, time 240.0 h postdose): 0.51 µg/mL
- Plasma levels of isoxicam (dog 120064, row 192.0, actual time=193 hours): 2.17* µg/ml
- Plasma levels of isoxicam (dog 120064, time 0.5 h postdose): 1.11 µg/mL
- Plasma levels of isoxicam (dog 120064, time 1.0 h postdose): 15.5 µg/mL
- Plasma levels of isoxicam (dog 120064, time 2.0 h postdose): 51.8 µg/mL
- Plasma levels of isoxicam (dog 120064, time 3.0 h postdose): 46.3 µg/mL
- Plasma levels of isoxicam (dog 120064, time 4.0 h postdose): 50.5 µg/mL
- Plasma levels of isoxicam (dog 120064, time 6.0 h postdose): 49.6 µg/mL
- Plasma levels of isoxicam (dog 120064, time 8.0 h postdose): 42.0 µg/mL
- Plasma levels of isoxicam (dog 120064, time 24.0 h postdose): 31.3 µg/mL
- Plasma levels of isoxicam (dog 120064, time 32.0 h postdose): 34.8 µg/mL
- Plasma levels of isoxicam (dog 120064, time 48.0 h postdose): 21.5 µg/mL
- Plasma levels of isoxicam (dog 120064, time 72.0 h postdose): 17.6 µg/mL
- Plasma levels of isoxicam (dog 120064, time 96.0 h postdose): 9.39 µg/mL
- Plasma levels of isoxicam (dog 120064, time 153.5 h postdose): 3.52 µg/mL
- Plasma levels of isoxicam (dog 120064, time 240.0 h postdose): 1.26 µg/mL
- AUC(0-inf) [1]: 2840 µg·h/mL
- half-life (Mean of four dogs, oral 100 mg (free acid equivalents), elimination half-life, read-out: Half-life (converted)): 36.2 h
- Cmax (Mean of four dogs, oral 100 mg (free acid equivalents), read-out: Cmax): 55300 ng/mL
- Tmax [1]: 3 h
- AUC(0-inf) [2]: 2910 µg·h/mL
- half-life (dog 1930, oral 100 mg (free acid equivalents), elimination half-life, read-out: Half-life (converted)): 38.8 h
- Cmax (dog 1930, oral 100 mg (free acid equivalents), read-out: Cmax): 51400 ng/mL
- Tmax [2]: 2 h
- AUC(0-inf) [3]: 2920 µg·h/mL
- half-life (dog 1942, oral 100 mg (free acid equivalents), elimination half-life, read-out: Half-life (converted)): 34.4 h
- Cmax (dog 1942, oral 100 mg (free acid equivalents), read-out: Cmax): 58600 ng/mL
- Tmax [3]: 2 h
- AUC(0-inf) [4]: 2590 µg·h/mL
- half-life (dog 117668, oral 100 mg (free acid equivalents), elimination half-life, read-out: Half-life (converted)): 27 h
- Cmax (dog 117668, oral 100 mg (free acid equivalents), read-out: Cmax): 59300 ng/mL
- Tmax [4]: 6 h
- AUC(0-inf) [5]: 2950 µg·h/mL
- half-life (dog 120064, oral 100 mg (free acid equivalents), elimination half-life, read-out: Half-life (converted)): 44.8 h
- Cmax (dog 120064, oral 100 mg (free acid equivalents), read-out: Cmax): 51800 ng/mL
- Tmax [5]: 2 h
- Cmax (four dogs, 100 mg oral, read-out: Mean Cmax): 56200 ± 5600 ng/mL
- half-life (four dogs, 100 mg oral, read-out: Mean half-lives (elimination, linear regression of semilogarithmic data) (converted)): 36.2 ± 7.5 h
- mean AUC^0-∞ (four dogs, 100 mg oral, trapezoidal rule extrapolated to infinity): 2840 ± 170 µg·h/mL
- Plasma levels of isoxicam, Mean (time 0.5 h postdose): 15400 ng/mL
- Plasma levels of isoxicam, Mean (time 1.0 h postdose): 32400 ng/mL
- Plasma levels of isoxicam, Mean (time 2.0 h postdose): 53900 ng/mL
- Plasma levels of isoxicam, Mean (time 3.0 h postdose): 50200 ng/mL
- Plasma levels of isoxicam, Mean (time 4.0 h postdose): 53200 ng/mL
- Plasma levels of isoxicam, Mean (time 6.0 h postdose): 49600 ng/mL
- Plasma levels of isoxicam, Mean (time 8.0 h postdose): 47400 ng/mL
- Plasma levels of isoxicam, Mean (time 12.0 h postdose): 38600 ng/mL
- Plasma levels of isoxicam, Mean (time 24.0 h postdose): 32600 ng/mL
- Plasma levels of isoxicam, Mean (time 32.0 h postdose): 28800 ng/mL
- Plasma levels of isoxicam, Mean (time 48.0 h postdose): 22600 ng/mL
- Plasma levels of isoxicam, Mean (time 72.0 h postdose): 15000 ng/mL
- Plasma levels of isoxicam, Mean (time 96.0 h postdose): 8410 ng/mL
- Plasma levels of isoxicam, Mean (time 153.5 h postdose): 2460 ng/mL
- Plasma levels of isoxicam, Mean (time 192.0 h postdose (two dogs actually 193 hours)): 1460 ng/mL
- Plasma levels of isoxicam, Mean (time 240.0 h postdose): 820 ng/mL
- mean peak plasma concentration (reached at two hours postdose, 100 mg (free acid equivalents) per oral dose, dogs): 53.9±4.0 Ilg/ml
- peak time (the final (fourth) animal, 100 mg oral): eight
- peak time (three animals of four, 100 mg oral): two

— patent EP0140492B1 (WARNER-LAMBERT COMPANY, priority 1983, dated 1985)
